This note sets out measurements from patent US20190175519A1, “Naloxone Transdermal Delivery Devices and Methods for Using the Same” (Teikoku Pharma USA, Inc., priority 2017, published 2019).

The series is described as follows: Pharmacokinetics of transdermal naloxone formulations compared to intravenously administered naloxone. Further details: species or system Gottingen mini-pigs. As to conditions: female, Gottingen, minipig, in vivo; IV bolus 0.01 mg/kg via marginal ear vein; first time point collected; post dose. The text has this: The purpose of this study was to determine the dermal irritation and pharmacokinetics of two transdermal naloxone formulations when worn for three days by naïve female Gottingen mini-pigs and to compare the pharmacokinetic transdermal profiles to the PK of intravenously (IV) administered naloxone.
Test materials (Naloxone Transdermal Formulations 1 & 2) were in the form of a single patch that was applied to the prepared skin site of the animals and remained on for a period of three (3) days.
The positive control article (marketed formulation), Naloxone (Narcan 0.4 mg/mL) was diluted with sterile 0.9% normal saline to a concentration of 0.04 mg/mL in order to achieve a desired dose volume of 0.25 mL/kg and dosage of 0.01 mg/kg. […]
Group 3: Narcan intravenous formulation (0.4 mg/mL) was diluted with sterile 0.9% normal saline to a concentration of 0.04 mg/mL. The dose volumes were calculated using the individual body weights of the pigs on the day of dosing. […]
The time of Test Material patch application and removal were recorded for each animal so that dermal scoring and PK time-points were calculated. The time of intravenous injection was also recorded so that PK time-points were calculated.

A word on the Tmax: it is the time at which the peak concentration occurs. For the molecule `C=CCN1CC[C@]23c4c5ccc(O)c4O[C@H]2C(=O)CC[C@@]3(O)[C@H]1C5` [Naloxone, 17-allyl-4,5α-epoxy-3,14-dihydroxymorphinan-6-one], the Tmax was 5 min.
